Data from patent US11235976B2, “Nanocarbon-iron composite system as well as composition, preparation method and use thereof” (Chongqing Lummy Pharmaceutical Co., LTD, priority 2017, dated 2022).

Tests used:
[1] = tested on: SMMC7721 liver cancer cells; test: Cell experiment, cell survival rate; type: cell-based; conditions: SMMC-7721, 48 h
Protocol: (§1) Cells growing in a log phase are collected, the concentration of the cell suspension is adjusted, 100 μL of cell suspension is added to each well and the cells are plated (edge wells are filled with sterile PBS) at a density of 1×10^3-10^4 cells/well. The cells are incubated for 24 hours at 37° C. under the condition of 5% CO2, a nanocarbon-iron solution having a concentration gradient (nanocarbon content: 125, 62.5, 15.63 and 3.91 μg/mL; and ferric ion content: 13.65, 6.83, 1.71 and 0.43 μg/mL) is added, and three sub-wells are set. Then the cells are incubated for 48 hours at 37° C. under the condition of 5% CO2. 10 μL of CCK8 solution is added to each well and then the cells are continuously incubated for 2 hours. The absorbance of each well is measured at OD=450 nm with the microplate reader. In addition, a negative control group, nanocarbon control groups having the same concentration and iron preparation control groups having the same concentration are set.
as §1, with “and 1” for “100”, “of a 6-well plate” for “and the cells are plated (edge wells are filled with sterile PBS)”, “3×10^4” for “1×10^3-10^4”, “1.71,” for “1.71 and”, “The” for “10 μL of CCK8 solution is added to each well and then the”, “trypsinized and counted.” for “continuously incubated for 2 hours. The absorbance of each well is measured at OD=450 nm with the microplate reader.”

[2] = tested on: Hela cervical cancer cells; test: Cell experiment, cell survival rate; type: cell-based; conditions: 48 h
Protocol: as §1
as §1, with “and 1” for “100”, “of a 6-well plate” for “and the cells are plated (edge wells are filled with sterile PBS)”, “3×10^4” for “1×10^3-10^4”, “1.71,” for “1.71 and”, “The” for “10 μL of CCK8 solution is added to each well and then the”, “trypsinized and counted.” for “continuously incubated for 2 hours. The absorbance of each well is measured at OD=450 nm with the microplate reader.”

[3] = tested on: MDA-MB-231 breast cancer cells; test: Cell experiment, cell survival rate; type: cell-based; conditions: 48 h
Protocol: as §1
as §1, with “and 1” for “100”, “of a 6-well plate” for “and the cells are plated (edge wells are filled with sterile PBS)”, “3×10^4” for “1×10^3-10^4”, “1.71,” for “1.71 and”, “The” for “10 μL of CCK8 solution is added to each well and then the”, “trypsinized and counted.” for “continuously incubated for 2 hours. The absorbance of each well is measured at OD=450 nm with the microplate reader.”

A549 lung cancer cells = test: Cell experiment, cell survival rate; type: cell-based; conditions: 48 h
Protocol: as §1
as §1, with “and 1” for “100”, “of a 6-well plate” for “and the cells are plated (edge wells are filled with sterile PBS)”, “3×10^4” for “1×10^3-10^4”, “1.71,” for “1.71 and”, “The” for “10 μL of CCK8 solution is added to each well and then the”, “trypsinized and counted.” for “continuously incubated for 2 hours. The absorbance of each well is measured at OD=450 nm with the microplate reader.”

[4] = tested on: subcutaneous transplantation tumors of 9 types of cancer cells; test: Tumor growth inhibition experiments, subcutaneous transplantation tumors; type: in vivo, mice; conditions: FIGS. 4-39
Protocol: Cells growing in a log phase are collected, the concentration of the cell suspension is adjusted to 3×10^7 cells/mL, and the cell suspension is inoculated subcutaneously into the right upper extremities of nude mice at the inoculation dosage of 0.1 mL (about 3×10^6 cells) per mouse. When the average tumor volume of the inoculated mice reaches 100 mm^3, the tumor-bearing mice are randomly divided into the following groups (8 nude mice per group): a negative control group (0.9% sodium chloride injection), a nanocarbon control group, an iron preparation control group, a nanocarbon-iron suspension experimental group, and a cis-platinum control group (intraperitoneal injection at the dosage of 5 mg/kg). The above various drugs are injected into the tumors. The tumor volume changes are recorded, and the formula for calculating the volume is Volume=(length×the square of width)/2.
Milky white and thick ascites is extracted from the H22 tumor-bearing mice, the concentration of the cell suspension is adjusted to be 3×10^7 cells/mL, 0.1 mL of cell suspension (about 3×10^6 cells) is inoculated subcutaneously into the right upper extremity of each of Kunming mice. When the average tumor volume of the inoculated mice reaches 100 mm^3, the tumor-bearing mice are randomly divided into the following groups (8 mice per group): a negative control group (0.9% sodium chloride injection), a nanocarbon control group, an iron preparation control group, a nanocarbon-iron suspension experimental group, and a cis-platinum control group (intraperitoneal injection at the dosage of 5 mg/kg). The above various drugs are injected into the tumors. The tumor volume changes are recorded, and the formula for calculating the volume is Volume=(length×the square of width)/2.

[5] = tested on: A549 metastatic lymph nodes; test: Lymph node metastasis inhibition experiment; type: in vivo, nude mouse; conditions: popliteal lymph nodes
Protocol: (§2) Cells growing in a log phase are collected, the concentration of the cell suspension is adjusted to 3×10^7 cells/mL, the cell suspension is inoculated subcutaneously into the left hind foot pads of each nude mouse at the inoculation volume of 0.05 mL (about 1.5×10^6 cells) and thus a lymph node metastasis mouse model is obtained. The mice are treated when the diameter of the tumor reaches 6-8 mm and there is no ulcer and necrosis. The mice are randomly divided into four groups (10 mice per group): a negative control group (0.9% sodium chloride injection), a nanocarbon control group, an iron preparation control group and a nanocarbon-iron suspension experimental group. 10 days after inoculation, the mice are killed, and popliteal lymph nodes are collected, weighed and fixed for pathological examination.

[6] = tested on: TPC-1 metastatic lymph nodes; test: Lymph node metastasis inhibition experiment; type: in vivo, nude mouse; conditions: popliteal lymph nodes
Protocol: as §2

[7] = tested on: SMMC-7721 metastatic lymph nodes; test: Lymph node metastasis inhibition experiment; type: in vivo, nude mouse; conditions: popliteal lymph nodes
Protocol: as §2

[8] = tested on: Hela metastatic lymph nodes; test: Lymph node metastasis inhibition experiment; type: in vivo, nude mouse; conditions: popliteal lymph nodes
Protocol: as §2

[9] = tested on: MDA-MB-231 metastatic lymph nodes; test: Lymph node metastasis inhibition experiment; type: in vivo, nude mouse; conditions: popliteal lymph nodes
Protocol: as §2

[10] = tested on: SGC-7901 metastatic lymph nodes; test: Lymph node metastasis inhibition experiment; type: in vivo, nude mouse; conditions: popliteal lymph nodes
Protocol: as §2

[11] = tested on: HCT116 metastatic lymph nodes; test: Lymph node metastasis inhibition experiment; type: in vivo, nude mouse; conditions: popliteal lymph nodes
Protocol: as §2

[12] = tested on: SKOV3 metastatic lymph nodes; test: Lymph node metastasis inhibition experiment; type: in vivo, nude mouse; conditions: popliteal lymph nodes
Protocol: as §2

[13] = tested on: lymph node metastasis of 9 types of tumor cells; test: Lymph node metastasis inhibition experiment, summary; type: in vivo, mice
Protocol: as §2
Milky white and thick ascites is extracted from the H22 tumor-bearing mice, the concentration is adjusted to be 3×10^7 cells/mL, 0.05 mL of cell suspension (about 1.5×10^6 cells) is inoculated subcutaneously into the left hind foot pads of each Kunming mouse, and thus a lymph node metastasis mouse model is obtained. The mice are treated when the diameter of the tumor reaches 6-8 mm and there is no ulcer and necrosis. The mice are randomly divided into four groups (10 mice per group): a negative control group (0.9% sodium chloride injection), a nanocarbon control group, an iron preparation control group and a nanocarbon-iron suspension experimental group. 10 days after inoculation, the mice are killed, and popliteal lymph nodes are collected, weighed and fixed for pathological examination.

[14] = iron preparation alone 6.83 μg/mL
[15] = iron preparation alone 13.65 μg/mL
[16] = iron preparation alone 0.43 μg/mL
[17] = iron preparation alone 1.71 μg/mL

ferrous sulfate
Cell Survival Rate [1, 14]: 100% | Cell Survival Rate [1, 15]: 97.46% | Cell Survival Rate [2, 16]: 100% | Cell Survival Rate [2, 17]: 100% | Cell Survival Rate [2, 14]: 100% | Cell Survival Rate [2, 15]: 93.99% | Cell Survival Rate [3, 16]: 100% | Cell Survival Rate [3, 17]: 100% | Cell Survival Rate [3, 14]: 100% | Cell Survival Rate [3, 15]: 100% | Cell Survival Rate (A549 lung cancer cells; [16]): 100% | Cell Survival Rate (A549 lung cancer cells; [17]): 94.18% | Cell Survival Rate (A549 lung cancer cells; [14]): 95.12% | Cell Survival Rate (A549 lung cancer cells; [15]): 100% | inhibition effect on growth of 9 types of tumors [4]: do not have an inhibition effect | Weight of Lymph Node [5]: 44.97 ± 16.53 mg | Weight of Lymph Node [6]: 35.71 ± 13.45 mg | Weight of Lymph Node [7]: 50.19 ± 18.73 mg | Weight of Lymph Node [8]: 29.48 ± 6.46 mg | Weight of Lymph Node [9]: 40.18 ± 11.14 mg | Weight of Lymph Node [10]: 50.12 ± 20.94 mg | Weight of Lymph Node [11]: 48.12 ± 10.58 mg | Weight of Lymph Node [12]: 35.62 ± 6.94 mg | inhibition effect on the metastatic lymph nodes [13]: do not have an inhibition effect
